# Source: US9174948B2, “Desferrithiocin polyether analogues” (University of Florida Research Foundation, Inc., priority 2007, dated 2015)
# “Also recorded” adds a separate entry of the source. Like-named read-outs stand apart in the source and are kept apart here. Marks after values point to notes of the source that are not given here.
# Key:
# [1] = tested on: Non-Iron-Overloaded Rodents; conditions: po, cited from earlier work; for Iron-Clearing Efficiency (%): rats, 300 μmol/kg, historical data
# [2] = tested on: Iron-Overloaded Cebus apella Primates; conditions: po, cited from earlier work; for Iron-Clearing Efficiency (%): Cebus apella, 150 μmol/kg, historical data
# [3] = Chelator tissue distribution in rodents; format: in vivo, rat (male Sprague-Dawley); conditions: rats, sc, 300 μmol/kg
# Protocol: Collection of Tissue Distribution Samples from Rodents: Male Sprague-Dawley rats (250-350 g) were given a single sc injection of the monosodium salts of 6 and 9 prepared as described above at a dose of 300 μmol/kg. At times 0.5, 1, 2, and 4 h after dosing (n=3 rats per time point) the animals were euthanized by exposure to CO2 gas. Blood was obtained via cardiac puncture into vacutainers containing sodium citrate. The blood was centrifuged, and the plasma was separated for analysis. The liver, heart, kidneys, and pancreas were then removed from the animals. […] J. Med. Chem. 2006, 49, 2772-2783]. In the current study, tissues from the (S)-3′-(HO)-DADFT-PE (9) and (S)-5′-(HO)-DADFT-PE (6) treated rats were prepared for HPLC analysis by homogenizing them in 0.5 N HClO4 at a ratio of 1:3 (w/v). Then, as a rinse, CH3OH at a ratio of 1:3 (w/v) was added and the mixture was stored at −20° C. for 30 min. This homogenate was centrifuged. The supernatant was diluted with mobile phase A (95% buffer [25 mM KH2PO4, pH 3.0]/5% CH3CN), vortexed, and filtered with a 0.2 μm membrane. Analytical separation was performed on a Discovery RP Amide C16 HPLC system with UV detection at 310 nm as described previously [Bergeron, R. J., Wiegand, J., Weimar, W. R., McManis, J. S., Smith, R. E. and Abboud, K. A. Iron Chelation Promoted by Desazadesferrithiocin Analogues: An Enantioselective Barrier. Chirality 2003, 15, 593-599; Bergeron, R. J., Wiegand, J., Ratliff-Thompson, K. and Weimar, W. R. The Origin of the Differences in (R)- and (S)-Desmethyldesferrithiocin: Iron-Clearing Properties. Ann. N.Y. Acad. Sci. 1998, 850, 202-216]. Mobile phase and chromatographic conditions were as follows: solvent A, 5% CH3CN/95% buffer; solvent B, 60% CH3CN/40% buffer. The concentrations were calculated from the peak area fitted to calibration curves by nonweighted least-squares linear regression with Rainin Dynamax HPLC Method Manager software (Rainin Instrument Co.).
# [4] = tested on: kidney proximal and distal tubules; conditions: rats, po, 237 μmol/kg/dose twice daily (474 μmol/kg/day) for 7 days; cited from earlier work
# [5] = target: Sudlow types I and II albumin binding sites (Rattus norvegicus, UniProt P02770); experiment: Ligand-albumin binding in bile duct-cannulated rodents treated with sodium benzoate; conditions: rats; for Iron-Clearing Efficiency (%): chelator 300 μmol/kg po plus sodium benzoate 250 mg/kg/dose sc × 6 doses; for fold increase in ICE with sodium benzoate: chelator 300 μmol/kg po, with vs without sodium benzoate
# Source text: We elected to focus on a drug that is under clinical trials with Genzyme, (S)-4′-(HO)-DADFT (1).
# [6] = earlier preclinical studies; cited from earlier work
# [7] = tested on: Non-Iron-Overloaded Rodents; experiment: Chelator-induced iron clearance in non-iron-overloaded, bile duct-cannulated rats; format: in vivo, rat (male Sprague-Dawley); conditions: po, 300 μmol/kg, 1 vs 3, 4 vs 6, 7 vs 9
# Source text: Chelator-Induced Iron Clearance in Non-Iron-Overloaded Rodents. […] J. Med. Chem. 2006, 49, 2772-2783]. Recall that iron-clearing efficiency (ICE) is defined as (net iron excretion)/(total iron-binding capacity of the chelator), expressed as a percent. The relative ICE values of compounds 1 and 2 were in keeping with their log Papp values: the more lipophilic, the larger log Papp, the more efficient the chelator. […] However, the ICE trend was in keeping with the biliary ferrokinetics (FIG. 3) and liver concentration of the chelators, for example, 3>1 (FIG. 4).
# Cannulation of Bile Duct in Non-Iron-Overloaded Rats has been described previously. […]. […] The urine sample(s) was taken at 24 h intervals. Sample collection and handling are as previously described [Bergeron, R. J., Streiff, R. R., Creary, E. A., Daniels, R. D., Jr., King, W., Luchetta, G., Wiegand, J., Moerker, T. and Peter, H. H. A Comparative Study of the Iron-Clearing Properties of Desferrithiocin Analogues with Desferrioxamine B in a Cebus Monkey Model. Blood 1993, 81, 2166-2173; Bergeron, R. J., Streiff, R. R., Wiegand, J., Vinson, J. R. T., Luchetta, G., Evans, K. M., Peter, H. and Jenny, H.-B. A Comparative Evaluation of Iron Clearance Models. Ann. N.Y. Acad. Sci. 1990, 612, 378-393].
# In the iron-clearing experiments, the rats were given a single 300 μmol/kg dose of drugs 1-9 orally (po).
# J. Med. Chem. 1999, 42, 2432-2440].
# [8] = 2:1 complex with Fe(III); cited from earlier work
# [9] = listed as (S)-4′-(HO)-DADFT (1)
# [10] = listed as (S)-4′-(HO)-DADFT-PE (3)
# Sudlow types I and II albumin binding sites, sequence (P02770 25-608): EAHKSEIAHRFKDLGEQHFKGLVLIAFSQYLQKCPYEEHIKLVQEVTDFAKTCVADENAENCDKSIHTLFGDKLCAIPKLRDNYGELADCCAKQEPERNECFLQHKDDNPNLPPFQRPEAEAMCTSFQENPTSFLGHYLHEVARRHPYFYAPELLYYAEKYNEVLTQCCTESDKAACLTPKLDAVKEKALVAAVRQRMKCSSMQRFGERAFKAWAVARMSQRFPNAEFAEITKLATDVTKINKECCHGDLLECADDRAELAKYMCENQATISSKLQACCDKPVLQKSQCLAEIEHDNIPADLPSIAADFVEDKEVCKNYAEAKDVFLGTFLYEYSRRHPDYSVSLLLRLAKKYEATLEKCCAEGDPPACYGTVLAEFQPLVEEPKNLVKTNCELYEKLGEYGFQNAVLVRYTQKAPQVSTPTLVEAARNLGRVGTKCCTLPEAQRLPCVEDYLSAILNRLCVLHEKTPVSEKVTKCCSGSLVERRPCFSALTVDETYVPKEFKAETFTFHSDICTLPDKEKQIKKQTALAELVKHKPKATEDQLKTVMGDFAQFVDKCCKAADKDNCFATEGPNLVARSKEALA
smiles,measurement,setting,value
"C[C@]1(C(=O)O)CSC(c2ccc(O)cc2O)=N1 [Compound 1, (S)-2-(2,4-dihydroxyphenyl)-4,5-dihydro-4-methyl-4-thiazolecarboxylic acid]",Iron-Clearing Efficiency (%),[1],1.1±0.8%
same,Iron-Clearing Efficiency (%),[1]; [9],1.1 ± 0.8%
same,Iron-Clearing Efficiency (%),[2],16.8±7.2%
same,kidney concentration,[3]; 0.5 h,361±56 nmol/g wet weight
same,kidney concentration,[3]; 1 h,179±4 nmol/g wet weight
same,kidney concentration,[3]; 4 h,27±7 nmol/g wet weight
same,pancreas concentration,[3]; 4 h,undetectable
same,distal tubules under light microscopy,[4],moderate to severe vacuolization
same,proximal tubules under light microscopy,[4],"regional, moderate to severe vacuolization in the proximal tubules, a loss of the brush border, and tubular extrusions toward the lumen"
same,Iron-Clearing Efficiency (%),[5],12.0±2.6%
same,Iron-Clearing Efficiency (%),[5]; [9],12.0 ± 2.6^b %
same,fold increase in ICE with sodium benzoate,[5],10.9 fold
same,toxicity / nephrotoxicity in words,[6],no geno- or reproductive toxicity and only mild nephrotoxicity at high doses
"COCCOCCOCCOc1ccc(C2=N[C@@](C)(C(=O)O)CS2)c(O)c1 [Compound 3, (S)-4,5-dihydro-2-[2-hydroxy-4-(3,6,9-trioxadecyloxy)phenyl]-4-methyl-4-thiazolecarboxylic acid]",ICE of the polyether relative to that of the parent ligand,[7],500%
same,Iron-Clearing Efficiency (%),[1],5.5±1.9%
same,Iron-Clearing Efficiency (%),[1]; [10],5.5 ± 1.9%
same,Iron-Clearing Efficiency (%),[2],25.4±7.4%
same,concentration at 0.5 h,"[3]; male, Sprague-Dawley, rat, plasma, 0.5 h",194 ± 60 µM
same,decrease of liver concentration from 0.5 h to 1 h,[3],6%
same,kidney concentration,[3]; 0.5 h,368±74 nmol/g wet weight
same,liver concentration,[3]; 0.5 h,339±35 nmol/g wet weight
same,drop in plasma concentration relative to 0.5 h,[3]; 1 h,28%
same,kidney concentration,[3]; 1 h,252±10 nmol/g wet weight
same,drop in plasma concentration relative to 0.5 h,[3]; 2 h,92%
same,kidney concentration,[3]; 2 h,41±3 nmol/g wet weight
same,pancreas concentration,[3]; 2 h,≈ 30 nmol/g wet weight
same,drop in plasma concentration relative to 0.5 h,[3]; 4 h,97%
same,kidney concentration,[3]; 4 h,34±13 nmol/g wet weight
same,distal tubules under light microscopy,[4],occasional vacuolization but were otherwise normal
same,proximal tubules under light microscopy,[4],indistinguishable from those of the control animals
same,Iron-Clearing Efficiency (%),[5],8.8±2.4%
same,Iron-Clearing Efficiency (%),[5]; [10],8.8 ± 2.4^c %
same,fold increase in ICE with sodium benzoate,[5],1.6 fold
same,toxicity / nephrotoxicity in words,[6],profoundly reduced nephrotoxicity; also recorded: profoundly less nephrotoxic
"C[C@]1(C(=O)O)CSC(c2ncccc2O)=N1 [DFT, (S)-4,5-dihydro-2-(3-hydroxy-2-pyridinyl)-4-methyl-4-thiazolecarboxylic acid, reference compound]",ICE,[1]; bile duct-cannulated rodent model,5.5%
same,ICE,[2]; iron-overloaded Cebus apella primate,16%
same,cumulative formation constant,[8],4e+29 M⁻¹
same,toxicity / nephrotoxicity in words,[6],severely nephrotoxic
